Results taken from PMC10053369, “Recombinant Analogs of Sea Anemone Kunitz-Type Peptides Influence P2X7 Receptor Activity in Neuro-2a Cells” (Marine Drugs, 2023).

Columns and labels:
[1] = tested on: Neuro-2a cells; experiment: Cytoprotection against ATP-induced cell death (MTT assay); type: cell-based, mouse
Procedure: (§1) Neuro-2a neuroblastoma cells (ATCC® CCL-131™) were obtained from American Type Culture Collection (Manassas, VA, USA). The cells were cultivated in DMEM medium (BioloT, St. Petersburg, Russia) supplemented with 10% of fetal bovine serum (BioloT, St. Petersburg, Russia) and 1% penicillin/streptomycin (BioloT, St. Petersburg, Russia) at 37 °C and 5% CO2. Initially, cells were incubated in cultural flasks until sub-confluent (~80%). For testing, Neuro-2a cells were seeded in 96-well plates and experiments were started after 24 h.
The cytoprotective effect of peptides was assessed in Neuro-2a cells using the MTT assay. In brief, an aliquot (180μL) of cell suspension with a nominal cell density of 3 × 10^4 cells/well was dispensed into 96-well plates. The cells were incubated for 24 h in a humidified atmosphere containing 5% CO2 to allow cell attachment. At the end of the preincubation period, ATP (Sigma-Aldrich, St. Louis, MO, USA) was added to the cells at a concentration of 4 mM. Studied peptides were added to the cells at concentrations of 0.1, 1.0 or 10.0 μM for 1h prior to the addition of ATP. After incubation for 48 h at 37 °C cell viability was detected using the MTT as described previously. The standard P2X7 inhibitor, A438079 (Sigma-Aldrich, St. Louis, MO, USA), at a concentration of 10 μM was used as a positive control.
(§2) All data were obtained in three independent replicates and calculated values were expressed as mean ± standard error of the mean (SEM). The Student’s t-test was performed using SigmaPlot 14.0 (Systat Software Inc., San Jose, CA, USA) to determine statistical significance.

[2] = tested on: P2X7 in Neuro-2a cells; experiment: ATP-induced YO-PRO-1 uptake (P2X7 pore formation); type: cell-based, mouse
Procedure: as §1
Neuro-2a cells were seeded in 96 well plates at a density of 4 × 10^4 cells/well and incubated in DMEM for 24 h, 37 °C, 5% CO2. Then the cells were washed once with HBSS and filled with 180 μL of the same buffer. YO-PRO-1 (Sigma-Aldrich, St. Louis, MO, USA, 5 μM final concentration) was loaded into the wells, the cells were incubated for 15 min at 37 °C. Further, the studied peptides were added to the cells at concentrations of 10, 1, 0.1 and 0.01 μM and incubated for 10 min at 37 °C. After that ATP (4 mM final concentration) was added and the plates were incubated for an additional 10 min. The standard P2X7R inhibitor, A438079 (Sigma-Aldrich, St. Louis, MO, USA), was used as inhibitory control. Then the cells were washed three times with the buffer solution and fluorescence intensity was measured with PHERAstar FS plate reader (BMG, LABTECH, Ortenberg, Germany) at λex = 485 nm and λem= 520 nm in the “End Point” mode. The effectiveness of compounds was evaluated relative to control without ATP.
as §2

[3] = tested on: P2X7 in Neuro-2a cells; experiment: ATP-induced Ca2+ influx (Fluo-8 AM); type: cell-based, mouse; conditions: for reduction of calcium level: 30 min pre-incubation, 1 mM ATP
Procedure: as §1
Neuro-2a cells were seeded in 96-well plates at a density of 4 × 10^4 cells/well and incubated in DMEM for 24 h at 37 °C, 5% CO2. Then the cells were washed twice with culture medium and loaded with 5 μM Fluo-8 AM (Abcam, Cambridge, UK) dye and 1 μM Pluronic® F-127 (Sigma-Aldrich, St. Louis, MO, USA), and incubated for 40 min at 37 °C in HBSS: 140 mM NaCl, 5 mM KCl, 0.8 mM MgCl2, 2 mM CaCl2, 10 mM glucose, 10 mM HEPES, pH 7.4. Then the cells were washed two times with the same solution but without the fluorescent dye and treated with the studied peptides for 30 min at RT in the dark. In some experiments Ca^2+-free medium was used: 140 mM NaCl, 5 mM KCl, 0.8 mM MgCl2, 10 mM glucose, 10 mM HEPES, 5 mM EGTA, pH 7.4. ATP (1 mM final concentration) was added using a microinjector (20 μL/well) 10 s later the baseline recording and the readings were taken up to 50 s in 1 s intervals. The standard P2X7 inhibitor, A438079 (Sigma-Aldrich, St. Louis, MO, USA), was used as inhibitory control. Ionomycin (Sigma-Aldrich, St. Louis, MO, USA) and BHQ were used to generate a generic calcium signal in cells. 2,5,-di(t-butyl) hydroquinone (BHQ) was synthesized and kindly provided by Dr. Polonik S.N. (PIBOC FEBRAS). Fluo-8 was excited at 485 nm, and the emission at 520 nm was measured with a PHERAstar®FS plate reader (BMG LABTECH, Ortenberg, Germany). The data were processed by MARS Data Analysis v. 3.01R2 (BMG Labtech, Ortenberg, Germany). Mean values and standard error of peak height calcium were calculated.
as §2

[4] = target: TRPV1 receptor; conditions: modulator of TRPV1, depends on nature and strength of activation stimuli; ref [14],[17],[18],[21],[38],[39],[40]; cited from earlier work
Description: (§3) The studied peptides are analogs of sea anemone Kunitz-type peptides and attract our attention due to their wide spectrum of biological activity and ability to interact with important molecular targets.

[5] = ref [14],[17],[18],[21],[38],[39],[40], cited from earlier work
Description: as §3

[6] = tested on: pancreatic ductal adenocarcinoma cells; conditions: ref [31]; cited from earlier work
[7] = tested on: cultured neurons of the dorsal horn of the spinal cord; conditions: cited from earlier work
Description: (§4) Activated P2X7 has also been reported to alter reactive oxygen species (ROS) in microglia/macrophages as was shown, for example, in primary rat microglial cells. In cultured neurons of the dorsal horn of the spinal ...

[8] = intrathecal; hind paw ipsilateral to the nerve injury; cited from earlier work
Description: as §4

[9] = tested on: spontaneously hypertensive rats; conditions: intracerebroventricular; ref [8]; cited from earlier work
Description: as §4

APHC3: recombinant Kunitz-type peptide from H. magnifica (=H. crispa), UniProtKB C0HJF3 (GSICLEPKVVGPCTAYFPRFYFNSETGKCTPFIYGGCEGNGNNFETLRACRGICRA; left off: thioredoxin, end not stated, cleaved)
protection from ATP-induced death ([1]; long-time application of ATP (4 mM, 48 h)): partially protected neuroblastoma cells from ATP-induced death | entry of YO-PRO-1 into cells (summary in discussion) ([2]; short-term effect): regulating the entry of low molecular weight fluorescent dye YO-PRO-1 into cells | reduction of calcium level ([3]; 0.1 μM peptide, mean ± SE, n = 3): 53.2 ± 24.95% | reduction of calcium level ([3]; 0.1–10 μM peptide): significantly reduced the calcium level | effect on Ca2+ influx (summary in discussion) ([3]; short-term effect): a significant effect on Ca^2+ influx into cells | EC50 [4]: ~0.018 µM | activity in models of inflammatory diseases ([5]; ex vivo and in vivo): potent activity | anti-inflammatory and analgesic activity [5]: significant anti-inflammatory and analgesic activity

Clc1cccc(-c2nnnn2Cc2cccnc2)c1Cl [A438079, reference compound]
ATP-induced pore formation and cell death [6]: very modest effects on ATP-induced pore formation and cell death | ATP or Bz-ATP-induced ROS production [7]: eliminated | mechanical hypersensitivity [8]: suppressed the development of mechanical hypersensitivity | increase in cell viability compared with ATP alone ([1]; pre-incubation with 10 μM A438079, then 4 mM ATP, 48 h, mean ± SE, n = 3): 18.2 ± 2.8% | inhibition of YO-PRO-1 dye penetration vs ATP alone ([2]; 10 μM A438079 pre-incubation, 4 mM ATP, mean ± SE, n = 3): up to 32% | ATP-induced uptake of YO-PRO-1 ([2]; 0.01–10 μM peptides or 10 μM A438079, 10 min pre-incubation, 4 mM ATP): attenuated dye accumulation

Cc1nc(N=Nc2ccc(S(=O)(=O)O)cc2S(=O)(=O)O)c(COP(=O)(O)O)c(C=O)c1O [PPADS]
infarct volume and number of irreversibly damaged cells [9]: reduced infarct volume and the number of irreversibly damaged cells
